Measured values published in patent US20200054651A1, “COMPOSITIONS AND METHODS FOR MODULATING PPP2R1A” (The Regents of the University of California, priority 2017, published 2020).

Tests used:
pure human KEAP1 = molecular target: T1, pure human KEAP1 (Homo sapiens, UniProt Q14145); assay: Gel-based ABPP, competition against IAyne labeling; assay type: binding; settings: 10 μM, 30 min at 37° C.
T1 construct: purchased Origene
Procedure: (§1) Gel-based ABPP methods were performed using the methods described in “Chem Biol 22(10), 1394-1405 (2015)” by Medina-Cleghorn D., et al. Recombinant pure human proteins were purchased from Origene. Pure proteins were pre-treated with DMSO, Withaferin A, or acrylamide or chloroacetamide compounds (e.g., DKM 2-90 or JNS 1-40) for 30 minutes at 37° C. in an incubation volume of PBS (50 μL), and were subsequently treated with IAyne (10 μM final concentration) for 30 minutes at room temperature. CuAAC was performed to append rhodamine-azide onto IAyne probe-labeled proteins. The samples were separated by SDS/PAGE and scanned using a ChemiDoc MP. Inhibition of target labeling was assessed by densitometry using ImageStudio Light software.

pure human vimentin = molecular target: T2, pure human vimentin (Homo sapiens, UniProt P08670); assay: Gel-based ABPP, competition against IAyne labeling; assay type: binding; settings: 10 μM, 30 min at 37° C.
T2 construct: purchased Origene
T2 sequence (P08670 whole entry): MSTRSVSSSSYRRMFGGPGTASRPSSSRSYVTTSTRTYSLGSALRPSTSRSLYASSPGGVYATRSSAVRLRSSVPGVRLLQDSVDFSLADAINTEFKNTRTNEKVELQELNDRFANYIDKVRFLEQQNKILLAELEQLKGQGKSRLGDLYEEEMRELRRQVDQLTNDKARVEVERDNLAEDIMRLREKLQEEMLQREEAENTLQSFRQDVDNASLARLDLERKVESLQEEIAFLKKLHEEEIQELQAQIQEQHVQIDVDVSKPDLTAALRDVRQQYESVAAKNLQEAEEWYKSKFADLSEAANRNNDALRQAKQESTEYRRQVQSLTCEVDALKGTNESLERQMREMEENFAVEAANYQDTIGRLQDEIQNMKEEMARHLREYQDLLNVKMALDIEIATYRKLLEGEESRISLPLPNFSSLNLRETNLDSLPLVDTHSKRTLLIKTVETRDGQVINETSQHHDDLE
Procedure: as §1

HCC38 cells = assay: HCC38 cell proliferation; assay type: cell-based; settings: 10 μM, 48 h
CLIC4 C35 = molecular target: T3, CLIC4 C35 (Homo sapiens, UniProt Q9Y696); assay: isoTOP-ABPP after in situ treatment of 231MFP cells; assay type: binding; settings: 100 μM, 4 h in 231MFP cells in situ
T3 construct: IsoTOP-ABPP analysis of DKM 2-90 treatment in 231MFP cells in situ; endogenous in cells; host or cells: 231MFP cells
T3 sequence (Q9Y696 whole entry): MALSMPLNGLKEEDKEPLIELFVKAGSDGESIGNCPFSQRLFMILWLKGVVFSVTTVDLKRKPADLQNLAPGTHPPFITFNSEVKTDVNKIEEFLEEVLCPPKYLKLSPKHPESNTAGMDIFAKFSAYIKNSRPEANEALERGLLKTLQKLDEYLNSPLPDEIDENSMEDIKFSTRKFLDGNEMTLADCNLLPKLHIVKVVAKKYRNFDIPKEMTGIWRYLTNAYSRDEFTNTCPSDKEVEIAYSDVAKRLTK
Procedure: (§2) IsoTOP-ABPP studies were performed using the methods described in “Nature 534(7608), 570-574 (2016)” by Backus K. M., et al. and “Nature 468(7325), 790-795 (2010)” by Weerapana E., et al. […] Then, IAyne (iodoacetamide-alkyne) labeling was performed for 1 hour at room temperature. CuAAC was used by sequential addition of tris(2-carboxyethyl)phosphine (1 mM), tris[(1-benzyl-1H-1,2,3-triazol-4-yl)methyl]amine (34 μM), copper (II) sulfate (1 mM), and biotin-linker-azide where the linker was functionalized with a TEV protease recognition sequence along with an isotopically light or heavy valine for treatment of control or treated proteome, respectively. After click reactions, proteomes were precipitated by centrifugation at 6500×g, washed in ice-cold methanol, combined in a 1:1 control/treated ratio, washed again, then denatured and re-solubilized by heating in 1.2% SDS/PBS to 80° C. for 5 minutes. Insoluble components were precipitated by centrifugation at 6500×g and soluble proteome was diluted in 0.2% SDS/PBS (5 ml). Labeled proteins were bound to avidin-agarose beads (170 μl re-suspended beads/sample) while rotating overnight at 4° C. Bead-linked proteins were enriched by washing three times each in PBS and water, then re-suspended in urea/PBS (6 M), reduced in TCEP (1 mM), alkylated with iodoacetamide (18 mM), then washed and re-suspended in urea/PBS (2 M), and finally trypsinized overnight with 0.5 μg/μl sequencing grade trypsin. Tryptic peptides were eluted off. Beads were washed in PBS (3 times) and water (3 times), washed in TEV buffer solution (water, TEV buffer, 100 μM dithiothreitol), and re-suspended in buffer with Ac-TEV protease and then incubated overnight. Peptides were diluted in water, acidified with formic acid (1.2 M), and prepared for analysis.
(§3) Peptides from all proteomic experiments were pressure-loaded onto an Agilent 600 series RP-HPLC system equipped with a capillary tubing (250 mm) packed with Aqua C18 reverse-phase resin (4 cm). The system was previously equilibrated with a gradient (0% B to 100% B over 10 minutes, 100% B for 5 minutes, then 0% B for 5 minutes; buffer A: 95:5 water:acetonitrile, 0.1% formic acid; buffer B: 80:20 acetonitrile:water, 0.1% formic acid). The samples were then attached using a MicroTee PEEK 360 μm fitting to a laser pulled column (13 cm) packed with Aqua C18 reverse-phase resin (10 cm) and strong-cation exchange resin (3 cm) for isoTOP-ABPP studies. Samples were analyzed using an Q Exactive Plus mass spectrometer using a 5-step Multidimensional Protein Identification Technology (MudPIT) program. The system was run using a gradient (5% B to 55% B; buffer A: 95:5 water:acetonitrile, 0.1% formic acid; buffer B: 80:20 acetonitrile:water, 0.1% formic acid), along with a salt bump feeding aqueous ammonium acetate (500 mM) at an increment of 0%, 25%, 50%, 80%, to 100%. Data was collected in data-dependent acquisition mode with dynamic exclusion enabled (60 sec). One full MS scan (400-1800 m/z) (MS1 scan) was conducted, followed by MS2 scan (ITMS) (15 times) of the most abundant ions. Heated capillary temperature was set to 200° C. and the nanospray voltage was set to 2.75 kV.
(§4) Data was extracted in the form of MS1 and MS2 files using Raw Extractor 1.9.9.2 and searched against the Uniprot […] database using ProLuCID search methodology in IP2 v.3, described in “J Proteomics 129:16-24 (2015)” by Xu T, et al. Cysteine residues were searched with a static modification for carboxyaminomethylation (+m/z 57.02146), up to two differential modifications for methionine oxidation, and either the light or heavy TEV tags (+m/z 464.28596 or +m/z 470.29977, respectively). Peptides were required to have at least one tryptic end and to contain the TEV modification. ProLUCID data was filtered through DTASelect to achieve a peptide false-positive rate below 1%. […]

ACAT1 C196 = molecular target: T4, ACAT1 C196 (Homo sapiens, UniProt P24752); assay: as above; assay type: binding; settings: 100 μM, 4 h in 231MFP cells in situ
T4 construct: IsoTOP-ABPP analysis of DKM 2-90 treatment in 231MFP cells in situ; endogenous in cells; host or cells: 231MFP cells
T4 sequence (P24752 34-427): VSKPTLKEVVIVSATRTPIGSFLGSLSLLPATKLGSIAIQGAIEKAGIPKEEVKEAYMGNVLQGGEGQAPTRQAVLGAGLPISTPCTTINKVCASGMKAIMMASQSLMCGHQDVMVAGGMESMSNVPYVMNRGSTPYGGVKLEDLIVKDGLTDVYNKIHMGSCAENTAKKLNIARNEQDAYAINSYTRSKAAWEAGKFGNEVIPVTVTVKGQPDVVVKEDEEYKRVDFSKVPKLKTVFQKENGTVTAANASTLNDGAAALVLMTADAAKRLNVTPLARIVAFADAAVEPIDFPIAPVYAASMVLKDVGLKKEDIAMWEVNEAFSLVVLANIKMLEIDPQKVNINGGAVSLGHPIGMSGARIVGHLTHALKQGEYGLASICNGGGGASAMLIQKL
Procedure: as §2, §3, §4

T1 sequence (Q14145 whole entry): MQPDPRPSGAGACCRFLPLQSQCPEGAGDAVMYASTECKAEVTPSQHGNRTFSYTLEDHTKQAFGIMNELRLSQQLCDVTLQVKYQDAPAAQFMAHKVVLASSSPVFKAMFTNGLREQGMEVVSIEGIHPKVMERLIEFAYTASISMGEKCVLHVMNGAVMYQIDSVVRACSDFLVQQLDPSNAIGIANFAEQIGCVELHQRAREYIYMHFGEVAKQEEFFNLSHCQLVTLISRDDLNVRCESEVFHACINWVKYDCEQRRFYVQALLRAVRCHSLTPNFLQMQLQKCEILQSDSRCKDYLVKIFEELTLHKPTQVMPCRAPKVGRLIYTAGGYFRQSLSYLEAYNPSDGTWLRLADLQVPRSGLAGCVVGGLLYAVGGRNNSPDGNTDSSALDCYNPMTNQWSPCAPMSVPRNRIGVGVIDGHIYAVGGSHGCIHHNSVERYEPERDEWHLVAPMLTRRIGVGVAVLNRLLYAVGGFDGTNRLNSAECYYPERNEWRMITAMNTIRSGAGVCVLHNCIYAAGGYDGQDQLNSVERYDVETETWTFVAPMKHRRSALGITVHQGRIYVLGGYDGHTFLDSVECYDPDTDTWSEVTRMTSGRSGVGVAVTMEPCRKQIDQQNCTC

SMILES	competition against IAyne labeling of pure human KEAP1 (pure human KEAP1)	competition against IAyne labeling of pure human vimentin (pure human vimentin)	cell proliferation (HCC38 cells)	isotopically light to heavy ratio, CLIC4 C35 (CLIC4 C35)	isotopically light to heavy ratio, ACAT1 C196 (ACAT1 C196)
CC1=C(CO)C(=O)O[C@@H]([C@@H](C)[C@H]2CC[C@H]3[C@@H]4C[C@H]5O[C@]56[C@@H](O)C=CC(=O)[C@]6(C)[C@H]4CC[C@]23C)C1 [withaferin A, reference compound]	no competition	lack of competition	impairs	–	–
O=C(CCl)Nc1ccc2c(c1)OCCO2 [DKM 2-90, 2-Chloro-N-(2,3-dihydrobenzo[β][1,4]dioxin-6-yl)acetamide]	–	–	–	> 5	> 5
